Common to all, as to format: cell-based
In one assay the test system is ARPE-19. Description: Cell death protection, LDH release after RSL3. To be noted: ARPE-19, RSL3 0.3 μM, 24 hours. Here is the method: (§1) To confirm the protective effect on cardiac cells, adrenal medulla cells, renal fibroblasts, retinal epithelial cells, lung epithelial cells, renal proximal tubule epithelial cells, hippocampal neurons, and fibroblasts, 4×10^3 to 1.2×10^4 cells of each cell type were dispensed into 96-well plates and cultured for 18 to 24 hours. Each well was treated with the example compound, which was diluted so that the final concentration became 0.001, 0.003, 0.01, 0.03, 0.1, 0.3, 1, 3, and 10 μM, and culture was performed for 15 to 20 minutes. […] To confirm the cell protecting effect of the example compounds, a cytotoxicity LDH assay kit [Dojindo; CK12] was used to measure the level of extracellular secretion of lactate dehydrogenase (LDH). Briefly, at the time point when the 24-hour treatment of each cell type with RSL3 ended, 70 μL of each supernatant from cell culture medium was taken and transferred to a new 96-well plate. After adding 70 μL/well (the same amount as the sample) of the assay buffer included in the kit, the resulting mixture was wrapped with foil and allowed to react at room temperature for 15 to 20 minutes. After observing the color change of the sample, 35 μL/well of a stop solution was added, and the absorbance value at 490 nm was measured using an iD3 spectrophotometer to calculate the EC50 value.
(§2) Table 3. Effect of protecting cardiac cells, adrenal medulla cells, renal fibroblasts, retinal epithelial cells, lung epithelial cells, renal proximal tubule epithelial cells, hippocampal neurons, and fibroblasts against cell death induced by RSL3.
(In general: LDH leaks from cells whose membrane has failed.)

The test system of another assay is H9C2. The assay is described as follows: Cell death protection, LDH release after RSL3. To be noted: H9C2, RSL3 0.5 μM, 24 hours. Here is the method: as §1, §2
A further assay relates to HK-2. The assay is described as follows: Cell death protection, LDH release after RSL3. Conditions: HK-2, RSL3 0.3 μM, 24 hours. Here is the method: as §1, §2
For a further assay, the system named is HT-22. Description: Cell death protection, LDH release after RSL3. Conditions: HT-22, RSL3 0.3 μM, 24 hours. On the procedure:
as §1, §2

The subject of the next assay is MLE-12. The assay is described as follows: Cell death protection, LDH release after RSL3. To be noted: 24 hours. Here is the method:
as §1, §2

For the next assay, the system named is NIH/3T3. The assay is described as follows: Cell death protection, LDH release after RSL3. Conditions: 24 hours. On the procedure:
as §1, §2

A further assay relates to NRK-49F. Description: Cell death protection, LDH release after RSL3. To be noted: RSL3 3 μM, 24 hours. Here is the method:
as §1, §2

The next assay concerns PC-12. The assay is described as follows: Cell death protection, LDH release after RSL3. Conditions: PC-12, RSL3 0.3 μM, 24 hours. Here is the method: as §1, §2
Assay [1] deals with MLE-12 cells. Description: Cytosolic ROS (CM-H2DCFDA) after RSL3. Conditions: MLE-12, 1 μM RSL3, 2 hours. Here is the method:
To confirm the protective effect against cytosolic reactive oxygen species in lung epithelial cells, 2×10^5 MLE-12 cells were dispensed into each well of a 12-well plate and cultured for 18 to 24 hours. Each well was treated with Example Compound 1 and ferrostatin-1, which were diluted so that their final concentration became 0.01, 0.1, 1, and 10 μM, and culture was performed for 15 minutes. Afterwards, the cells were treated so that the final concentration of RSL3 became 1 μM, and cultured for 2 hours. To confirm the inhibitory effect against cytosolic reactive oxygen species, CM-H2DCFDA (general oxidative stress indicator) [Invitrogen™; C6827] was used. According to the manufacturer's experimental method, CM-H2DCFDA was diluted in the cell culture medium so that the final concentration became 5 μM, and the cells were treated therewith and allowed to react for 30 minutes to perform fluorescent staining. The MLE-12 cells fluorescently stained with CM-H2DCFDA were detached from the 12-well plate using 0.25% Trypsin-EDTA and transferred to a microtube, and the fluorescence (excitation/absorption 492 to 495 nm/517 to 527 nm) was measured using BD FACSLyric™ to calculate the rate of change compared to the control group.

The subject of assay [2] is MLE-12 cells. The assay is described as follows: Cytosolic iron ion accumulation (FerroOrange, flow cytometry) after RSL3. To be noted: MLE-12, 1 μM RSL3, 8 hours. Here is the method:
(§3) To confirm the inhibitory effect against cytosolic iron ion accumulation in lung epithelial cells, 2×10^5 MLE-12 cells were dispensed into each well of a 12-well plate and cultured for 18 to 24 hours. Each well was treated with Example Compound 1 and ferrostatin-1, which were diluted so that their final concentration became 0.01, 0.1, 1, and 10 μM, and culture was performed for 15 minutes. Afterwards, the cells were treated so that the final concentration of RSL3 became 1 μM, and cultured for 8 hours. To confirm the inhibitory effect against cytosolic iron ion accumulation, FerroOrange [DOJINDO; F374] was used. According to the manufacturer's experimental method, FerroOrange was diluted in the cell culture medium so that the final concentration became 1 μM, and the cells were treated therewith and allowed to react for 30 minutes to perform fluorescent staining. The MLE-12 cells fluorescently stained with FerroOrange were detached from the 12-well plate using 0.25% Trypsin-EDTA and transferred to a microtube, and the fluorescence (excitation/absorption 580 nm/543 nm) was measured using BD FACSLyric™ to calculate the rate of change compared to the control group (RSL3 untreated group).
For orientation: A flow cytometer gives signals particle by particle.

For assay [3], the system named is MLE-12 cells. The assay is described as follows: Mitochondrial iron ion accumulation (Mito-FerroGreen, flow cytometry) after RSL3. Conditions: MLE-12, 1 μM RSL3, 8 hours. On the procedure: as §3, with “mitochondrial” for “cytosolic”, “Mito-FerroGreen” for “FerroOrange”, “M489]” for “F374]”, “505 nm/535” for “580 nm/543”, “group.” for “group (RSL3 untreated group).”

One may read the EC50 as the concentration that produces a half-maximal response. A lower EC50 goes with a more potent agent. Regarding `O=S1(=O)CCN(Cc2cc(NC3CCOCC3)c3[nH]c(-c4ccccc4)cc3c2)CC1` [Example 1, 5-[(1,1-dioxido-4-thiomorpholinyl)methyl]-2-phenyl-N-(tetrahydro-2H-pyran-4-yl)-1H-indole-7-amine], the EC50 with ARPE-19 (Homo sapiens) was at most 0.03 µM; in the assay with H9C2 (Rattus norvegicus) it was 0.03 to 0.1 µM; in the assay on HK-2 (Homo sapiens), at most 0.03 µM; in the assay with HT-22 (Mus musculus), at most 0.03 µM; in the assay on MLE-12 (MLE12, MLE-12, RSL3 1 μM), at most 0.03 µM; with NIH/3T3 (Mus musculus, NIH3T3, NIH/3T3, RSL3 3 μM), 0.03 to 0.1 µM. For the same compound, the EC50 is at most 0.03 µM in the assay on NRK-49F (Rattus norvegicus) and 0.03 to 0.1 µM with PC-12 (Rattus norvegicus). For the same compound, the “concentration at which cytosolic reactive oxygen species were significantly decreased” value in the assay on MLE-12 cells [1] amounted to 0.01 µM. In the assay on MLE-12 cells [2], the “concentration at which cytosolic iron ion accumulation was significantly decreased” value came out at 0.1 µM. For the same compound, in the assay with MLE-12 cells [3], the “concentration at which mitochondrial iron ion accumulation was significantly decreased” value is 0.01 µM.
For `CCOC(=O)c1ccc(NC2CCCCC2)c(N)c1` [Fer-1, ferrostatin-1, reference compound], the EC50 in the assay on ARPE-19 was in the range of 0.03 to 0.1 µM; in the assay with H9C2, 0.03 to 0.1 µM; in the assay on HK-2, 0.03 to 0.1 µM; in the assay on HT-22, 0.03 to 0.1 µM; in the assay with MLE-12 (MLE-12, RSL3 1 μM), 0.03 to 0.1 µM; in the assay on NIH/3T3 (NIH/3T3, RSL3 3 μM), 0.03 to 0.1 µM. In addition, the concentration giving a half-maximal response (EC50) in the assay with NRK-49F and with PC-12 was 0.03 to 0.1 µM throughout. Besides, the “concentration at which cytosolic reactive oxygen species were significantly decreased” value in the assay on MLE-12 cells [1] was found to be 0.1 µM. Further, in the assay on MLE-12 cells [2], the “concentration at which cytosolic iron ion accumulation was significantly decreased” value was determined as 1 µM. For the same compound, the “concentration at which mitochondrial iron ion accumulation was significantly decreased” value with MLE-12 cells [3] came out at 0.1 µM.

The record behind these values is US20240269145A1, “USE OF INDOLE COMPOUND AS INHIBITORS OF FERROPTOSIS” (MITOIMMUNE THERAPEUTICS INC., priority 2023, published 2024).
